Ends that are not written are not given here.
Columns and labels:
[1] = test system: C. albicans (SC5314); assay: microbe, parasite or virus in culture; assay type: cell-based, Candida albicans; conditions: RPMI-1640 pH 7.0, 2 × 10^3 cells/mL, 37°C, 24 h; complete inhibition of visible growth; at least three experiments; read-out: Minimum inhibitory concentration, C. albicans (SC5314)
Text: (§1) Candida albicans strain SC 5314 (ATCC MYA-2876) was provided by Dr. Joshua Nosanchuk (New York, NY, USA). C. glabrata ATCC 90030, C. parapsilosis ATCC 22019, and C. tropicalis ATCC 750 were provided by Dr. Érika Kioshima (Universidade Estadual de Maringá, Paraná, Brazil). C. neoformans var. grubii strain H99 (serotype A, ATCC 208821) was provided by Dr. John Perfect (Durham, NC, USA). C. neoformans var. neoformans B3501 (serotype D, ATCC 34873) was obtained from ATCC (Manassas, VA, USA). All strains were stored as frozen stocks in 35% glycerol at -80°C. Before each experiment, all Candida spp. strains were grown in Sabouraud’s dextrose broth overnight at 30°C with agitation. C. neoformans strains were grown in the same conditions for 24 h. Fungal cells were collected by centrifugation, washed three times in phosphate buffered saline (PBS) (137 mM NaCl, 2.7 mM KCl, 10 mM Na2HPO4, 2 mM KH2PO4) and inoculated in Roswell Park Memorial Institute (RPMI) 1640 medium supplemented with L-glutamine and buffered to pH 7.0 with 165 mM 3-(N-morpholino)propanesulfonic acid for experiments described below.
(§2) In vitro antifungal assays were performed according to broth microdilution susceptibility test from Clinical and Laboratory Standards Institute (CLSI) M27-A3 guidelines with some modifications. Briefly, twofold serial dilutions of each peptide were prepared in 96-well polystyrene microplates to a final volume of 50 μL. Amphotericin B (Amp B; A2942, Sigma-Aldrich), a known antifungal drug, was used as a positive control. Final concentrations of each peptide and Amp B ranged from 100 to 0.78 μM and 16 to 0.03 μg/mL, respectively, except in tests with C. glabrata and C. parapsilosis, where the final peptide concentration ranged from 400 to 0.78 μM. In each plate, wells were included without peptide as a growth control. Then, 50 μL of the adjusted inoculum in RPMI-1640 medium were added to each well to a final concentration of 2 × 10^3 cells/mL for Candida spp. and 10^4 cells/mL for C. neoformans strains. The plates were incubated at 37°C for 24 and 48 h, respectively. The strains of C. neoformans were also incubated with shaking (200 rpm). […] The experiments were performed at least three times on separate dates.

[2] = test system: C. tropicalis (ATCC 750); assay: microbe, parasite or virus in culture; assay type: cell-based, Candida tropicalis; conditions: RPMI-1640 pH 7.0, 2 × 10^3 cells/mL, 37°C, 24 h; complete inhibition of visible growth; at least three experiments; read-out: Minimum inhibitory concentration, C. tropicalis (ATCC 750)
Text: as §1, §2

[3] = test system: C. parapsilosis (ATCC 22019); assay: microbe, parasite or virus in culture; assay type: cell-based, Candida parapsilosis; conditions: RPMI-1640 pH 7.0, 2 × 10^3 cells/mL, 37°C, 24 h; peptides 400 to 0.78 μM; at least three experiments; read-out: Minimum inhibitory concentration, C. parapsilosis (ATCC 22019)
Text: as §1, §2

[4] = test system: C. glabrata (ATCC 90030); assay: microbe, parasite or virus in culture; assay type: cell-based, Candida glabrata; conditions: RPMI-1640 pH 7.0, 2 × 10^3 cells/mL, 37°C, 24 h; peptides 400 to 0.78 μM; at least three experiments; read-out: Minimum inhibitory concentration, C. glabrata (ATCC 90030)
Text: as §1, §2

[5] = test system: C. neoformans (H99 serotype A); assay: microbe, parasite or virus in culture; assay type: cell-based, Cryptococcus neoformans var. grubii; conditions: RPMI-1640 pH 7.0, 10^4 cells/mL, 37°C, 48 h, shaking 200 rpm; at least three experiments; read-out: Minimum inhibitory concentration, C. neoformans (H99 serotype A)
Text: as §1, §2

[6] = test system: C. neoformans (B3501 serotype D); assay: microbe, parasite or virus in culture; assay type: cell-based, Cryptococcus neoformans var. neoformans; conditions: RPMI-1640 pH 7.0, 10^4 cells/mL, 37°C, 48 h, shaking 200 rpm; at least three experiments; read-out: Minimum inhibitory concentration, C. neoformans (B3501 serotype D)
Text: as §1, §2

[7] = test system: human erythrocytes; assay: Hemolytic assay; assay type: cell-based; conditions: 1 h, 540 nm; for Hemolysis: all the tested concentrations (100 to 0.78 μM), 3% hematocrit in PBS
Text: Considering the potential use of the AMPs as treatment against pathogens, even if in a more distant future, some of their properties against host cells should be addressed. To achieve this goal, we have performed hemolytic assay to evaluate if these molecules are toxic or harmless to red blood cells. Further, we have also tested the possible cytotoxicity of those peptides against other mammalian cell types by following the cell viability score after treatment. The solution of human red blood cells was treated with the peptide at levels ranging from 100 to 0.78 μM. Whole human blood was collected from healthy donors in vials with ethylenediaminetetraacetic acid (EDTA). The red blood cells were separated by centrifugation and resuspended in PBS. After the centrifugation (800 g, 5 min at 4 ± 1°C) the supernatant was removed and the red blood cells pellet was resuspended to a 3% hematocrit in sterile water (considered as 100% hemolysis) and PBS (taken as blank for spectrophotometric measurement). Fifty microliters of the 3% cell suspension in PBS were added to different final concentrations of the peptide (v/v) in a 96-well polystyrene microplate and then incubated for 1 h ([Nahar et al., 2008]; [Zhao et al., 2009]; [Qi et al., 2010]). The microplates were centrifuged and the supernatant was collected and analyzed at 540 nm using a microplate spectrophotometer. The percentage of hemolysis was calculated relative to the positive control as performed by [Nahar et al. (2008)]. The procedures were approved by the Ethics Committee on Human Research of Faculty of Medicine/University of Brasília (UnB) and conform to FDA standards (UnBDoc no. 66704/2016).

[8] = test system: peritoneal macrophages of BALB/c mice; assay: Cytotoxic test using peritoneal macrophages (LDH release); assay type: cell-based, mouse; conditions: 24 h; for Viability of peritoneal macrophages: whole range of peptide concentrations
Procedure: BALB/c mice were injected with thioglycolate 72 h before peritoneal macrophages were harvested. They were diluted to a concentration of 10^6 cell/mL in RPMI-1640 supplemented with penicillin/streptomycin (100 U/mL, 100 µg/mL), 2 mM L-glutamine, 2 mM non-essential amino acids, 1 mM sodium pyruvate (all reagents from Sigma-Aldrich, St Louis, MO, USA) and 10% fetal bovine serum (FBS), and incubated in 96-well polystyrene microplates at 37°C, 5% CO2 for 24 h. The peptides were added then and cells were further incubated for 24 h as described previously ([Cruz et al., 2005]). Three independent experiments were performed. Cytotoxic activity was evaluated by the release of cytoplasmic enzyme lactate dehydrogenase due to cell lysis using the Cytotox kit (Promega). Briefly, at the end of the incubation period, supernatants were collected, the adhered cells were washed and the toxicity was determined according to the manufacturer’s protocol. The procedures were approved by the Ethics Committee on Animal Research of Institute of Biology (UnBDOC 52657/2011)/University of Brasília (UnB).

[9] = test system: Candida spp. and C. neoformans; assay: Broth microdilution antifungal assay, summary over the strains tested; assay type: cell-based, Candida spp.; Cryptococcus neoformans; conditions: data not shown
Text: as §1
In vitro antifungal assays were performed according to broth microdilution susceptibility test from Clinical and Laboratory Standards Institute (CLSI) M27-A3 guidelines with some modifications. Briefly, twofold serial dilutions of each peptide were prepared in 96-well polystyrene microplates to a final volume of 50 μL. Amphotericin B (Amp B; A2942, Sigma-Aldrich), a known antifungal drug, was used as a positive control. Final concentrations of each peptide and Amp B ranged from 100 to 0.78 μM and 16 to 0.03 μg/mL, respectively, except in tests with C. glabrata and C. parapsilosis, where the final peptide concentration ranged from 400 to 0.78 μM. In each plate, wells were included without peptide as a growth control. Then, 50 μL of the adjusted inoculum in RPMI-1640 medium were added to each well to a final concentration of 2 × 10^3 cells/mL for Candida spp. and 10^4 cells/mL for C. neoformans strains. The plates were incubated at 37°C for 24 and 48 h, respectively. […]

[10] = Circular dichroism, α-helix content; assay type: physicochemical; conditions: CD, 0.2 mg/mL, 37°C, from [θ]208
Procedure: Circular dichroism (CD) assays were carried out using Jasco J-815 spectropolarimeter equipped with a Peltier-type temperature controller. Peptides (0.2 mg/mL) were analyzed in water at 37°C in absence or the presence of trifluoroethanol (TFE) (10, 30, and 50%). The mean spectrum of three consecutive experiments was corrected for the baseline buffer contribution. The observed ellipticities were converted into molar ellipticity ([θ]) based on molecular mass per residue of 115 Da ([Adler et al., 1973]). The α helix secondary structure content (fθ) was estimated considering the values of [θ]208 nm as a function of TFE concentration using the following equation ([Greenfield and Fasman, 1969]): […]

Substance: FIGMIPGLIGGLISAFK-NH2 [ToAP1]
- MIC [1]: 50 µM
- MIC [2]: 12.5 µM
- MIC [3]: 200 µM
- MIC [4]: >400 µM
- MIC [5]: 25 µM
- MIC [6]: 12.5 µM
- Hemolysis [7]: lower than 50%
- Viability of peritoneal macrophages [8]: higher viability

Substance: EEDDLLGFSEEDLKAIKEHRAKNA-NH2 [ToAcP, anionic peptide from T. obscurus, LT576031]
- Antifungal activity in the tested concentrations ([9]; Candida spp. and C. neoformans): did not present antifungal activity

Substance: FLGMIPGLIGGLISAFK-NH2 [NDBP-4.23]
- MIC [1]: 50 µM
- MIC [2]: 6.25 µM
- MIC [3]: 100 µM
- MIC [4]: >400 µM
- MIC [5]: 25 µM
- MIC [6]: 12.5 µM
- Hemolysis [7]: lower than 50%
- Concentrations showing low cytotoxicity ([8]; threshold of acceptable cytotoxicity 50% viability, three independent experiments): < 25 µM

Substance: FIGMIPGLIGGLISAIK-NH2 [ToAP3]
- MIC [1]: 25 µM
- MIC [2]: 12.5 µM
- MIC [3]: 100 µM
- MIC [4]: >400 µM
- MIC [5]: 100 µM
- MIC [6]: 25 µM

Substance: FFSLIPSLIGGLVSAIK-NH2 [ToAP4, NDBP subfamily 4 peptide from T. obscurus, amidated]
- Antifungal activity in the tested concentrations ([9]; Candida spp. and C. neoformans): has not shown antifungal activity

Substance: FFGTLFKLLSKLIPGLMKLFSKLLER-NH2 [ToAP2S1, modified analog of ToAP2, C-terminally amidated]
- Antifungal activity in the tested concentrations ([9]; C. albicans, C. glabrata and C. neoformans H99): did not show antifungal activity
- Hemolysis curve compared with ToAP2 ([7]; with concentrations up to 25 μM): higher hemolysis curve
- α-Helix content (%), TFE 10% ([10]; TFE 10%): 22.9%
- α-Helix content (%), TFE 30% ([10]; TFE 30%): 24.3%
- α-Helix content (%), TFE 50% ([10]; TFE 50%): 24.7%
- α-Helix content (%), water ([10]; water, mean spectrum of three experiments): 16.5%

Substance: ILSAIWSGIKSLF-NH2 [NDBP-5.7]
- MIC [1]: 25 µM
- MIC [2]: 25 µM
- MIC [3]: >400 µM
- MIC [4]: >400 µM
- MIC [5]: 25 µM
- MIC [6]: 12.5 µM
- Hemolysis percent ([7]; in concentrations up to 50 μM): higher than 50%
- Viability of peritoneal macrophages [8]: higher viability

Substance: GILGKIWEGVKSLI [NDBP-5.8]
- MIC [1]: 100 µM
- MIC [2]: 25 µM
- MIC [3]: 200 µM
- MIC [4]: >400 µM
- MIC [5]: 100 µM
- MIC [6]: 50 µM

— paper PMC5114273, “Activity of Scorpion Venom-Derived Antifungal Peptides against Planktonic Cells of Candida spp. and Cryptococcus neoformans and Candida albicans Biofilms” (Frontiers in Microbiology, 2016)
